Data reported in patent publication US20260356856A1, “KRAS G12S AND G12C INHIBITORS” (MIRATI THERAPEUTICS, INC., priority 2023, published 2026).

Key:
[1] = molecular target: T1, KRas G12C (Homo sapiens, UniProt P01116, G12C); assay: KRas binding assay, TR-FRET displacement of Cy5 labelled tracer; conditions: 60-minute incubation at room temperature, 1% DMSO, pH 7.5
T1 construct: Biotinylated KRas (corresponding to amino acids 1-169, produced at Accelegan Inc.); biotin (biotinylated); purchased Accelegan Inc
In short: (§1)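 Biotinylated KRas (residues 1-169) was incubated with tracer, terbium-streptavidin and compound at 1% DMSO final in 50 mM HEPES pH 7.5 containing 5 mM MgCl2, 0.005% Tween-20 and 1 mM DTT. The plate was read after 60 min at room temperature, and percent-of-control data were fit to a 4-parameter IC50 equation.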

[2] = molecular target: T2, KRas G12S (Homo sapiens, UniProt P01116, G12S); assay: as above; conditions: 60-minute incubation at room temperature, 1% DMSO, pH 7.5
T2 construct: Biotinylated KRas (corresponding to amino acids 1-169, produced at Accelegan Inc.); biotin (biotinylated); purchased Accelegan Inc
In short: as §1

[3] = molecular target: T3, KRas WT (Homo sapiens, UniProt P01116); assay: as above; conditions: 60-minute incubation at room temperature, 1% DMSO, pH 7.5
T3 construct: Biotinylated KRas (corresponding to amino acids 1-169, produced at Accelegan Inc.); biotin (biotinylated); purchased Accelegan Inc
In short: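 TR-FRET tracer-displacement readout after 60 min at room temperature, using KRas residues 1-169 (biotinylated) with terbium streptavidin and a Cy5 tracer. Buffer: 50 mM HEPES pH 7.5, 5 mM MgCl2, 0.005% Tween-20, 1 mM DTT, 1% DMSO final. IC50 from 4-parameter fit of POC data.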

[4] = molecular target: T4, KRas-mediated phosphorylation of ERK in MKN1 cells (Homo sapiens, UniProt P01116); assay: Inhibition of KRas-mediated phosphorylation of ERK (HTRF), MKN1 cells; assay type: cell-based; conditions: MKN1 cells (KRas WT); HTRF pERK; 3 h incubation
T4 construct: pERK HTRF read-out
Description: Inhibition of KRas Phosphorylation of ERK (HTRF) by Exemplary Compounds of Formula (Ia) or (Ib)
Cisbio HTRF Advanced pERK Assay Catalog #64AERPEH • Cells: MKN1, PSN1 • Procedure: • 1. Day 1: Seed 6,000 cells/well −25 μl/well in 384-well white solid bottom plate; RPM1_10% FBS. Incubate overnight at 37 °C/5% CO2. • 2.

[5] = molecular target: T5, KRas-mediated phosphorylation of ERK in A549 cells (Homo sapiens, UniProt P01116, G12S); assay: Inhibition of KRas-mediated phosphorylation of ERK (HTRF), A549 cells; assay type: cell-based; conditions: HTRF pERK, 3 h incubation
T5 construct: pERK HTRF read-out

[6] = molecular target: T6, KRas-mediated phosphorylation of ERK in H358 cells (Homo sapiens, UniProt P01116, G12C); assay: Inhibition of KRas-mediated phosphorylation of ERK (HTRF), H358 cells; assay type: cell-based; conditions: HTRF pERK, 3 h incubation
T6 construct: pERK HTRF read-out
T6 sequence (P01116 1-188 isoform P01116-2 G12C): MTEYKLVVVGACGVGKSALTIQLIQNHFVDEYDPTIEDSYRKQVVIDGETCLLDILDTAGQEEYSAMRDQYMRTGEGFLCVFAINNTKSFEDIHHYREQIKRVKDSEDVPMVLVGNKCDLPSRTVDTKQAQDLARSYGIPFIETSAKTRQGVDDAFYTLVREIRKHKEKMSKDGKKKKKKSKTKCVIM

T2 sequence (P01116 1-169 isoform P01116-2 G12S): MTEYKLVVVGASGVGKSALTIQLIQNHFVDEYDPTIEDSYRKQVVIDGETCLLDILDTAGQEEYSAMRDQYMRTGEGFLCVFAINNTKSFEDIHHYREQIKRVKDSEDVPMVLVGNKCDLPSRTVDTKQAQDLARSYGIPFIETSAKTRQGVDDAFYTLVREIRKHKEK
T1 sequence (P01116 1-169 isoform P01116-2 G12C): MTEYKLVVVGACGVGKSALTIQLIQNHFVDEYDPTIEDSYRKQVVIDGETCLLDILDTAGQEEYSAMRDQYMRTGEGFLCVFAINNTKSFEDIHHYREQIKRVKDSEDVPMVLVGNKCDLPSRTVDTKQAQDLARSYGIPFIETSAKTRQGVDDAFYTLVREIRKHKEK
T4 sequence (P01116 1-188 isoform P01116-2): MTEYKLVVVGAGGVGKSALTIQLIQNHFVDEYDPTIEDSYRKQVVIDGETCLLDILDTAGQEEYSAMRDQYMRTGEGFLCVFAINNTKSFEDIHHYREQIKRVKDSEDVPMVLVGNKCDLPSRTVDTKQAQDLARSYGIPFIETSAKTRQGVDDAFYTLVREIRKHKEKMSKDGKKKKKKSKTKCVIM
T3 sequence (P01116 1-169 isoform P01116-2): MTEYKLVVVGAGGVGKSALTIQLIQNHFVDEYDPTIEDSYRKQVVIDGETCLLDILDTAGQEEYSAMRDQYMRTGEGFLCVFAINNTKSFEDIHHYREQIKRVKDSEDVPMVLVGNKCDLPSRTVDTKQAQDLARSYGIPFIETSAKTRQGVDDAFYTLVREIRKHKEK
T5 sequence (P01116 1-188 isoform P01116-2 G12S): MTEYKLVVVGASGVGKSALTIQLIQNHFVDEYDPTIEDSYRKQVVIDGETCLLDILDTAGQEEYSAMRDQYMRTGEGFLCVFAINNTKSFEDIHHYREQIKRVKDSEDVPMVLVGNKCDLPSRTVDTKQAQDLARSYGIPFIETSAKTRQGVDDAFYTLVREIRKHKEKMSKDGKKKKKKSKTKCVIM

SMILES	IC50 [1] [nM]	IC50 [2] [nM]	IC50 [3] [nM]	IC50 [4] [nM]	IC50 [5] [nM]	IC50 [6] [nM]
CCc1c(F)ccc2cc(O)cc(-c3ncc4c(N5CCC(C(=O)n6nc(C)c(C)c6C)CC5)nc(OC[C@@]56CCCN5C[C@H](F)C6)nc4c3F)c12 [Example 73, (1-(7-(8-ethyl-7-fluoro-3-hydroxynaphthalen-1-yl)-8-fluoro-2-(((2R,7aS)-2-fluorotetrahydro-1H-pyrrolizin-7a(5H)-yl)methoxy)pyrido[4,3-d]pyrimidin-4-yl)piperidin-4-yl)(3,4,5-trimethyl-1H-pyrazol-1-yl)methanone]	888	2960	1080	5570	8480	4500
CCc1c(F)ccc2cc(O)cc(-c3ncc4c(N(C)C(C)CCC(=O)N(C)C(C)=O)nc(OC[C@@]56CCCN5C[C@H](F)C6)nc4c3F)c12 (stereo partly drawn) [Example 282, N-acetyl-4-((7-(8-ethyl-7-fluoro-3-hydroxynaphthalen-1-yl)-8-fluoro-2-(((2R,7aS)-2-fluorotetrahydro-1H-pyrrolizin-7a(5H)-yl)methoxy)pyrido[4,3-d]pyrimidin-4-yl)(methyl)amino)-N-methylpentanamide]	82	44	184	870	185	1290
N#Cc1c(N)sc2c(F)ccc(-c3c(Cl)cc4c(N5CCN(C(=O)n6ccnn6)CC5)nc(OC[C@@]56CCCN5C[C@H](F)C6)nc4c3F)c12 [Example 226, 4-(4-(4-(1H-1,2,3-triazole-1-carbonyl)piperazin-1-yl)-6-chloro-8-fluoro-2-(((2R,7aS)-2-fluorotetrahydro-1H-pyrrolizin-7a(5H)-yl)methoxy)quinazolin-7-yl)-2-amino-7-fluorobenzo[b]thiophene-3-carbonitrile]	< 2	8	6	4	69	1
CCc1c(F)ccc2cc(O)cc(-c3ncc4c(NCC5CC(C(=O)N(C)C(C)=O)C5)nc(OC[C@@]56CCCN5C[C@H](F)C6)nc4c3F)c12 (stereo partly drawn) [Example 280, N-acetyl-3-(((7-(8-ethyl-7-fluoro-3-hydroxynaphthalen-1-yl)-8-fluoro-2-(((2R,7aS)-2-fluorotetrahydro-1H-pyrrolizin-7a(5H)-yl)methoxy)pyrido[4,3-d]pyrimidin-4-yl)amino)methyl)-N-methylcyclobutane-1-carboxamide]	17	14	9	102	107	428
CN(C=O)C(=O)CCCN(C)c1nc(OC[C@@]23CCCN2C[C@H](F)C3)nc2c(F)c(-c3ccc(F)c4sc(N)c(C#N)c34)c(Cl)cc12 [Example 235, 4-((7-(2-amino-3-cyano-7-fluorobenzo[b]thiophen-4-yl)-6-chloro-8-fluoro-2-(((2R,7aS)-2-fluorotetrahydro-1H-pyrrolizin-7a(5H)-yl)methoxy)quinazolin-4-yl)(methyl)amino)-N-formyl-N-methylbutanamide]	3	2	6	82	7	60
N#Cc1c(N)sc2c(F)ccc(-c3c(Cl)cc4c(N5CCC(C(=O)Oc6ccccc6Cl)CC5)nc(OC[C@@]56CCCN5C[C@H](F)C6)nc4c3F)c12 [Example 298, 2-chlorophenyl 1-(7-(2-amino-3-cyano-7-fluorobenzo[b]thiophen-4-yl)-6-chloro-8-fluoro-2-(((2R,7aS)-2-fluorotetrahydro-1H-pyrrolizin-7a(5H)-yl)methoxy)quinazolin-4-yl)piperidine-4-carboxylate]	17	80	154	217	169	16
Cc1ccn(C(=O)C2CCCN(c3nc(OC[C@@]45CCCN4C[C@H](F)C5)nc4c(F)c(-c5c(C#N)c(N)cc(C)c5C(F)(F)F)c(Cl)cc34)CC2)n1 (stereo partly drawn) [Example 248, 6-amino-2-(6-chloro-8-fluoro-2-(((2R,7aS)-2-fluorotetrahydro-1H-pyrrolizin-7a(5H)-yl)methoxy)-4-(4-(3-methyl-1H-pyrazole-1-carbonyl)azepan-1-yl)quinazolin-7-yl)-4-methyl-3-(trifluoromethyl)benzonitrile]	360	57	669	2920	100	4220
CN(CCCC(=O)Oc1ccccc1)c1nc(OC[C@@]23CCCN2C[C@H](F)C3)nc2c(F)c(-c3ccc(F)c4sc(N)c(C#N)c34)c(Cl)cc12 [Example 204, phenyl 4-((7-(2-amino-3-cyano-7-fluorobenzo[b]thiophen-4-yl)-6-chloro-8-fluoro-2-(((2R,7aS)-2-fluorotetrahydro-1H-pyrrolizin-7a(5H)-yl)methoxy)quinazolin-4-yl)(methyl)amino)butanoate]	< 2	13	38	230	351	17
Cc1ccn(C(=O)C2CCCN(c3nc(OC[C@@]45CCCN4C/C(=C\F)C5)nc4c(F)c(-c5ccc(F)c6sc(N)c(C#N)c56)c(Cl)cc34)CC2)n1 (stereo partly drawn) [Example 175, 2-amino-4-(6-chloro-8-fluoro-2-(((S,Z)-2-(fluoromethylene)tetrahydro-1H-pyrrolizin-7a(5H)-yl)methoxy)-4-(4-(3-methyl-1H-pyrazole-1-carbonyl)azepan-1-yl)quinazolin-7-yl)-7-fluorobenzo[b]thiophene-3-carbonitrile]	9	8	16	177	6	11
CCc1c(F)ccc2cc(O)cc(-c3ncc4c(N(C)CCC(C)C(=O)N(C)C(C)=O)nc(OC[C@@]56CCCN5C[C@H](F)C6)nc4c3F)c12 (stereo partly drawn) [Example 284, N-acetyl-4-((7-(8-ethyl-7-fluoro-3-hydroxynaphthalen-1-yl)-8-fluoro-2-(((2R,7aS)-2-fluorotetrahydro-1H-pyrrolizin-7a(5H)-yl)methoxy)pyrido[4,3-d]pyrimidin-4-yl)(methyl)amino)-N,2-dimethylbutanamide]	8	5	77	446	7	39
CCc1c(F)ccc2cc(O)cc(-c3ncc4c(N5CCC(C(=O)n6cc(OC)cn6)CC5)nc(OC[C@@]56CCCN5C[C@H](F)C6)nc4c3F)c12 [Example 294, (1-(7-(8-ethyl-7-fluoro-3-hydroxynaphthalen-1-yl)-8-fluoro-2-(((2R,7aS)-2-fluorotetrahydro-1H-pyrrolizin-7a(5H)-yl)methoxy)pyrido[4,3-d]pyrimidin-4-yl)piperidin-4-yl)(4-methoxy-1H-pyrazol-1-yl)methanone]	61	22	130	3870	74	4490
CCc1c(F)ccc2cc(O)cc(-c3ncc4c(N(C)CCCC(=O)n5ccc(C)n5)nc(OC[C@@]56CCCN5C[C@H](F)C6)nc4c3F)c12 [Example 110, 4-((7-(8-ethyl-7-fluoro-3-hydroxynaphthalen-1-yl)-8-fluoro-2-(((2R,7aS)-2-fluorotetrahydro-1H-pyrrolizin-7a(5H)-yl)methoxy)pyrido[4,3-d]pyrimidin-4-yl)(methyl)amino)-1-(3-methyl-1H-pyrazol-1-yl) butan-1-one]	< 2	< 2	58	1320	12	91
CN(CCCC(=O)Oc1ccc(F)cc1)c1nc(OC[C@@]23CCCN2C[C@H](F)C3)nc2c(F)c(-c3ccc(F)c4sc(N)c(C#N)c34)c(Cl)cc12 [Example 270, 4-fluorophenyl 4-((7-(2-amino-3-cyano-7-fluorobenzo[b]thiophen-4-yl)-6-chloro-8-fluoro-2-(((2R,7aS)-2-fluorotetrahydro-1H-pyrrolizin-7a(5H)-yl)methoxy)quinazolin-4-yl)(methyl)amino)butanoate]	4	22	74	340	462	77
CCc1c(F)ccc2cc(O)cc(-c3ncc4c(N(C)CCC(=O)N(C)C(C)=O)nc(OC[C@@]56CCCN5C[C@H](F)C6)nc4c3F)c12 [Example 273, N-acetyl-3-((7-(8-ethyl-7-fluoro-3-hydroxynaphthalen-1-yl)-8-fluoro-2-(((2R,7aS)-2-fluorotetrahydro-1H-pyrrolizin-7a(5H)-yl)methoxy)pyrido[4,3-d]pyrimidin-4-yl)(methyl)amino)-N-methylpropanamide]	30	40	58	340	745	494
